Source: ChEMBL document CHEMBL5126608, “Development, Optimization, and In Vivo Validation of New Imidazopyridine Chemotypes as Dual TLR7/TLR9 Antagonists through Activity-Directed Sequential Incorporation of Relevant Structural Subunits” (J Med Chem, 2022)

Key:
Toll-like receptor 9 = biological target: T1, Toll-like receptor 9 (Homo sapiens, UniProt Q9NR96); assay: Antagonist activity at human TLR9 expressed in HEK-blue hTLR9 cells assessed as inhibition of CpGB-induced NFkappaB activation preincubated with compound for 1 hrs followed by CpGB addition and measured next day by SEAP-based spectrophotometry assay; format: cell-based
T1 sequence (Q9NR96 whole entry): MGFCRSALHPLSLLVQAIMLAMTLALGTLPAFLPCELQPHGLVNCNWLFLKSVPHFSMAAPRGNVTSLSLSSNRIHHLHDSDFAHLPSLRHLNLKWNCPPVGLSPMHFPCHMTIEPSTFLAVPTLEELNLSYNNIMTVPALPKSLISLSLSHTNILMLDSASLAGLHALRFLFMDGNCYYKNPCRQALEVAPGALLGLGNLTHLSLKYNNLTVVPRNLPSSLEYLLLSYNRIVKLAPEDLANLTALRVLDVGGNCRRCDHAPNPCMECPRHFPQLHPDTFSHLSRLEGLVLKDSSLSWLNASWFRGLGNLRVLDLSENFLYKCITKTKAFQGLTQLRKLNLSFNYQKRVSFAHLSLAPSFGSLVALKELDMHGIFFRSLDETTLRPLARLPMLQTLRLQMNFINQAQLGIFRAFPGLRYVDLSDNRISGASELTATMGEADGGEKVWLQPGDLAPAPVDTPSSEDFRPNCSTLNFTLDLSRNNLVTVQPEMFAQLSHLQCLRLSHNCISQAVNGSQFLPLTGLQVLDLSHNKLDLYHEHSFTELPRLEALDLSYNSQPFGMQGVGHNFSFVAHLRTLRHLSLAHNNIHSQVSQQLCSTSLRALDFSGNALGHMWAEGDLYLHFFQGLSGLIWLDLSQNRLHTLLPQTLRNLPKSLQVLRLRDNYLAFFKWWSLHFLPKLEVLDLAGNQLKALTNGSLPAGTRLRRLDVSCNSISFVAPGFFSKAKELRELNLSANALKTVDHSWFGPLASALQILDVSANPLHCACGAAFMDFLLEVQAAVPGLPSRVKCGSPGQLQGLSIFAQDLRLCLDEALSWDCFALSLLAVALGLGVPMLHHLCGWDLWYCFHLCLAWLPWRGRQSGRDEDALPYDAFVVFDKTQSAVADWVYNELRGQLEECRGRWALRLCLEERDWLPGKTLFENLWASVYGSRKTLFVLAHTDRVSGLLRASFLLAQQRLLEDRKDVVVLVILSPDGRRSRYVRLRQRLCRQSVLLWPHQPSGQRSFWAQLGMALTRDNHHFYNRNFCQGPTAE

Toll-like receptor 7 = biological target: T2, Toll-like receptor 7 (Homo sapiens, UniProt Q9NYK1)
T2 sequence (Q9NYK1 whole entry): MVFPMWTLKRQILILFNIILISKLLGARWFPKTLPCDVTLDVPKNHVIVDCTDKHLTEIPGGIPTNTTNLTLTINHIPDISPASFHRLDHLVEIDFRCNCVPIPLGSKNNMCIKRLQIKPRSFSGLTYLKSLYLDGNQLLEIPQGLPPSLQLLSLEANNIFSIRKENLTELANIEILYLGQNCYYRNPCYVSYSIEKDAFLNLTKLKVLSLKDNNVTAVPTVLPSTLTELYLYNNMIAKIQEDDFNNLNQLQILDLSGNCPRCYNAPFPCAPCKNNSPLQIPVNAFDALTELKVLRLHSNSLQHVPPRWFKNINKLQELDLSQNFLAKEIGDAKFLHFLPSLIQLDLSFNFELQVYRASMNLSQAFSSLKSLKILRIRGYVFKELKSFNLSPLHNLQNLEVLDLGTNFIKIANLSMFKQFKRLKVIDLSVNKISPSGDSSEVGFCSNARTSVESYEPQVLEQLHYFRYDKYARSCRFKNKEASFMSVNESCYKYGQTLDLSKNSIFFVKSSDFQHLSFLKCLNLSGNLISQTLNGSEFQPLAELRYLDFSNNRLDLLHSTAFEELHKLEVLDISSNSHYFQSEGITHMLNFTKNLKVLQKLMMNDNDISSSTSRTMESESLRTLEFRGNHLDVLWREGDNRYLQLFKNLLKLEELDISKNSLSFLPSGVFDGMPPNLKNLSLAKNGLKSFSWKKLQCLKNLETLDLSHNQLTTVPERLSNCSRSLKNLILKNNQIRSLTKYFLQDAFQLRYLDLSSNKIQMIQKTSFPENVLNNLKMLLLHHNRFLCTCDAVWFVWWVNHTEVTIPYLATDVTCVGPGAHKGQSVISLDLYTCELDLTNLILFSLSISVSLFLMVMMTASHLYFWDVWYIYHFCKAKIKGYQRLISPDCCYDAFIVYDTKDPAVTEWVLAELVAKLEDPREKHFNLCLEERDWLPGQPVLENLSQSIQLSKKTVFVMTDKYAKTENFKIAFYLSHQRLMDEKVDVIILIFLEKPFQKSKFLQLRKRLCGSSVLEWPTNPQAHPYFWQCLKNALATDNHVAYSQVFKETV

Row | SMILES | IC50 (Toll-like receptor 9) [nM] | IC50 (Toll-like receptor 7) [nM]
1 | COc1ccc(-c2nc3cc(N4CCN(C5CCCC5)CC4)ccn3c2NCc2ccccc2)c(OC)c1 | 526 | 4810
2 | COc1ccc(-c2nc3cc(N4CCN(C(C)C)CC4)ccn3c2CN2CCOCC2)c(OC)c1 | 40 | 2490
3 | COc1ccc(-c2cn3ccc(N4CCN(C(=O)C5CCCC5)CC4)cc3n2)c(OCc2ccccc2)c1 | 5130 | –
4 | COc1ccc(-c2cn3ccc(N(C)C)cc3n2)c(OC)c1 | 766 | 3780
5 | COc1ccc(-c2cn3ccc(N4CCN(C(=O)c5ccccc5)CC4)cc3n2)c(OCc2ccccc2)c1 | 1060 | 24900
6 | COc1ccc(-c2cn3ccc(N4CCN(C5CCCC5)CC4)cc3n2)cc1 | 71 | 3330
7 | COc1ccc(-c2cn3ccc(N4CCN(C(=O)OC(C)(C)C)CC4)cc3n2)c(OCCCN2CCCC2)c1 | 157 | –
8 | COc1ccc(-c2cn3ccc(NCCCn4ccnc4)cc3n2)c(OC)c1 | 38 | 819
9 | COc1ccc(-c2cn3ccc(N)cc3n2)cc1 | 2920 | –
10 | COc1ccc(-c2cn3ccc(N4CCNCC4)cc3n2)c(OC)c1 | 46 | –
11 | COc1ccc(-c2cn3ccc(N4CCN(C(=O)C5CCCC5)CC4)cc3n2)c(O)c1 | 2120 | –
12 | COc1ccc(-c2cn3ccc(NCCCN4CCOCC4)cc3n2)cc1 | 67 | 1060
13 | CN(C)c1ccn2cc(-c3ccccc3)nc2c1 | 2190 | –
14 | COc1ccc(-c2cn3ccc(NCCN4CCOCC4)cc3n2)c(OC)c1 | 49 | 3390
15 | COc1ccc(-c2cn3ccc(N4CCN(C(=O)OC(C)(C)C)CC4)cc3n2)c(OCCCN2CCOCC2)c1 | 314 | 2950
16 | COc1ccc(-c2nc3cc(N4CCN(C5CCCC5)CC4)ccn3c2NC2CCCCC2)c(OC)c1 | 2110 | 6700
17 | COc1ccc(-c2cn3ccc(N4CCN(C(=O)C5CCCC5)CC4)cc3n2)c(OC)c1 | 2910 | 8700
18 | COc1ccc(-c2cn3ccc(N4CCNCC4)cc3n2)c(OCCCN2CCOCC2)c1 | 35 | 1350
19 | COc1ccc(-c2nc3cc(N4CCN(C5CCCC5)CC4)ccn3c2CN2CCCC2)c(OC)c1 | 39 | –
20 | COc1ccc(-c2cn3ccc(N4CCNCC4)cc3n2)cc1 | 803 | 559
21 | COc1ccc(-c2cn3ccc(N4CCN(C(=O)c5ccc(F)cc5)CC4)cc3n2)c(OCc2ccccc2)c1 | 2190 | 11000
22 | COc1ccc(-c2cn3ccc(NCCCN4CCOCC4)cc3n2)c(OC)c1 | 69 | –

Further lines, results first:

Row | IC50 (Toll-like receptor 9) [nM] | IC50 (Toll-like receptor 7) [nM] | SMILES
23 | 1120 | 2550 | COc1ccc(-c2nc3cc(N4CCN(C(=O)C5CCCC5)CC4)ccn3c2CN2CCCC2)c(OC)c1
24 | – | > 30000 | COc1ccc(-c2nc3ccccn3c2N)c(OC)c1
25 | 240 | – | COc1ccc(-c2nc3cc(N4CCN(C5CCCC5)CC4)ccn3c2CN2CCCC2)c(OCc2ccccc2)c1
26 | 142 | 2120 | COc1ccc(-c2nc3cc(N4CCN(C5CCCC5)CC4)ccn3c2CN2CCOCC2)c(OC)c1
27 | 17 | – | COc1ccc(-c2cn3ccc(N4CCN(C5CCCC5)CC4)cc3n2)c(OCCCN2CCCC2)c1
28 | 10400 | – | COc1ccc(-c2cn3ccccc3n2)c(OC)c1
29 | 153 | 5560 | COc1ccc(-c2cn3ccc(N4CCN(C5CCCC5)CC4)cc3n2)c(OCc2ccccc2)c1
30 | 1480 | – | COc1ccc(-c2cn3ccc(N(C)C)cc3n2)cc1
31 | 15 | – | COc1ccc(-c2nc3cc(N4CCN(C(C)C)CC4)ccn3c2CN2CCCC2)c(OC)c1
32 | 94 | – | COc1ccc(-c2cn3ccc(N4CCNCC4)cc3n2)c(OCCCN2CCCC2)c1
33 | 790 | 20800 | COc1ccc(-c2cn3ccc(N4CCN(C5CCCC5)CC4)cc3n2)c(O)c1
34 | 245 | 24900 | COc1ccc(-c2nc3cc(N4CCN(C5CCCC5)CC4)ccn3c2CN2CCCC2)c(O)c1
35 | 1570 | – | COc1ccc(-c2cn3ccc(N)cc3n2)c(OC)c1
36 | 55 | 1130 | COc1ccc(-c2cn3ccc(N4CCNCC4)cc3n2)c(OCc2ccccc2)c1
